What was measured:
[1] = molecular target: Recombinant Rhinovirus 3C protease serotype 16 (Human rhinovirus 16, UniProt Q82122); conditions: RVP serotype 16; enzyme start progress curves
Experimental: (§1) Stock solutions (50 mM, in DMSO) of various compounds were prepared; dilutions were in the same solvent. […] Assays contained 2% DMSO, 50 mM tris pH 7.6, 1 mM EDTA, a compound at the indicated concentrations, approximately 1 μM substrate, and 50-100 nM protease. […] The kobs/I values were obtained from reactions initiated by addition of enzyme rather than substrate. RVP activity is measured in the fluorescence resonance energy transfer assay.
(§2) In the above table, all data are for RVP serotype-14 unless otherwise noted in parentheses. All strains of human rhinovirus (HRV) were purchased from American Type Culture Collection (ATCC) except for serotype 14, which was produced from the infectious cDNA clone constructed and supplied to Applicants by Dr. Robert Rueckert at the Institute for Molecular Virology, University of Wisconsin, Madison, Wis. The column designated INHIB represents the percent inhibition at 10 minute preincubation with 50 nM RVP prior to addition of substrate. The data in the column designated kobs/I was measured from progress curves in enzyme start experiments.

[2] = molecular target: Recombinant Rhinovirus 3C protease serotype 2 (Human rhinovirus 2, UniProt P04936); conditions: RVP serotype 2; enzyme start progress curves
Experimental: as §1, §2

HRV serotype-14 = assay: Antirhinoviral HI-HeLa Cell Culture Assay (XTT cell protection), HRV-14; type: cell-based, human rhinovirus; conditions: HRV serotype-14, HI-HeLa cells
Experimental: (§3) In the Cell Protection Assay, the ability of compounds to protect cells against HRV infection was measured by the XTT dye reduction method. This method is described in Weislow, O. S., Kiser, R., Fine, D. L., Bader, J., Shoemaker, R. H., Boyd, M. R., J. Natl. Cancer Inst. 1989, 81, 577-586, the disclosure of which is incorporated herein by reference.
(§4) Infected or mock-infected cells were suspended at 8×10^5 cells per mL and incubated with appropriate concentrations of compounds of formula I. Two days later, XTT/PMS was added to test plates, and the amount of formazan produced was quantified spectrophotometrically at 450/650 nm. […] The therapeutic index (TI) was calculated by dividing the CC50 by the EC50.
(§5) All strains of human rhinovirus (HRV) for use in this assay were purchased from American Type Culture Collection (ATCC) except for HRV serotype-14, which was produced from the infectious cDNA clone constructed and supplied to Applicants by Dr. Robert Rueckert at the Institute for Molecular Virology, University of Wisconsin, Madison, Wis. HRV stocks were propagated, and viral assays were performed in HI-HeLa cells (ATCC). Cells were grown in Minimal Essential Medium, available from Life Technologies, with 10% fetal bovine serum.
(§6) The compounds were tested against control compounds WIN 51711, WIN 52084, and WIN 54954, all obtained from Sterling-Winthrop Pharmaceuticals, and control compound Pirodavir, obtained from Janssen Pharmaceuticals. Antiviral data obtained for the test compounds are shown in Table 2 where all data are for HRV serotype-14 unless otherwise noted in parentheses.

[3] = molecular target: T1, Recombinant Rhinovirus 3C protease serotype 14 (Human rhinovirus 14, UniProt P03303); assay: Inhibition of Rhinovirus Protease (FRET assay), serotype 14; type: biochemical, human rhinovirus (HRV) serotype 14; conditions: for kobs/I: RVP serotype-14, enzyme start progress curves
T1 construct: Recombinant Rhinovirus 3C proteases from serotypes 14, 16, and 2; made in house

HI-HeLa cells [4] = assay: Cytotoxicity (CC50) in mock-infected HI-HeLa cells, antirhinoviral assay; type: cell-based
HRV serotype 2 = assay: Antirhinoviral HI-HeLa Cell Culture Assay (XTT cell protection), HRV serotype 2; type: cell-based, human rhinovirus; conditions: HRV serotype 2, HI-HeLa cells
Experimental: as §3, §4, §5, §6

HI-HeLa cells [5] = assay: Cytotoxicity (CC50) in uninfected HI-HeLa cells, anticoxsackieviral assay; type: cell-based; conditions: CVA-21 assay
Experimental: The Coxsackie strain A-21 (CVA-21) was purchased from American Type Culture Collection (ATCC). Virus stocks were propagated, and antiviral assays were performed in HI-HeLa cells (ATCC). Cells were grown in Minimal Essential Medium with 10% fetal bovine serum.
The ability of compounds to protect cells against CVA-21 infection was measured by the XTT dye reduction method. This method is described in Weislow, O. S., Kiser, R., Fine, D. L., Bader, I., Shoemaker, R. H., Boyd, M. R., J. Natl. Cancer Inst. 1989, 81, 577-586, the disclosure of which is incorporated herein by reference. HI-HeLa cells were infected with CVA-21 at a multiplicity of infection (m.o.i.) of 0.05 (CVA-21) or mock-infected with medium only. Infected or uninfected cells were resuspended at 4×10^4 cells per mL and incubated with appropriate concentrations of drug. One day later, XTT/PMS was added to test plates, and the amount of formazan produced was quantified spectrophotometrically at 450/650 nm. […] The therapeutic index (Th) was calculated by dividing the CC50 by the EC50.

HRV serotype 10 = assay: Antirhinoviral HI-HeLa Cell Culture Assay (XTT cell protection), HRV serotype 10; type: cell-based, human rhinovirus; conditions: HRV serotype 10, HI-HeLa cells
Experimental: as §3, §4, §5, §6

HRV serotype 89 = assay: Antirhinoviral HI-HeLa Cell Culture Assay (XTT cell protection), HRV serotype 89; type: cell-based, human rhinovirus; conditions: HRV serotype 89, HI-HeLa cells
Experimental: as §3, §4
(§7) All strains of human rhinovirus (HRV) for use in this assay were purchased from American Type Culture Collection (ATCC) except for HRV serotype-14, which was produced from the infectious cDNA clone constructed and supplied to Applicants by Dr. Robert Rueckert at the Institute for Molecular Virology, University of Wisconsin, Madison, Wis. HRV stocks were propagated, and viral assays were performed in HI-HeLa cells (ATCC). Cells were grown in Minimal Essential Medium, available from Life Technologies, with 10% fetal bovine serum. […]

HRV serotype 39 = assay: Antirhinoviral HI-HeLa Cell Culture Assay (XTT cell protection), HRV serotype 39; type: cell-based, human rhinovirus; conditions: HRV serotype 39, HI-HeLa cells
Experimental: as §3, §4, §7

HRV serotype 1A = assay: Antirhinoviral HI-HeLa Cell Culture Assay (XTT cell protection), HRV serotype 1A; type: cell-based, human rhinovirus; conditions: HI-HeLa cells
Experimental: as §3, §4, §5, §6

T1 sequence (P03303 1538-1719): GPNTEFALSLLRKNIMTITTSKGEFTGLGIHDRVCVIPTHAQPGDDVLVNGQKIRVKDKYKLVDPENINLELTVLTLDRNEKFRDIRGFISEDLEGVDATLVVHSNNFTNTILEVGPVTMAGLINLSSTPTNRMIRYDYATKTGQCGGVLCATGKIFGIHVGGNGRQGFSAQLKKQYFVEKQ
Chain of Recombinant Rhinovirus 3C protease serotype 16 (Q82122 1511-1693): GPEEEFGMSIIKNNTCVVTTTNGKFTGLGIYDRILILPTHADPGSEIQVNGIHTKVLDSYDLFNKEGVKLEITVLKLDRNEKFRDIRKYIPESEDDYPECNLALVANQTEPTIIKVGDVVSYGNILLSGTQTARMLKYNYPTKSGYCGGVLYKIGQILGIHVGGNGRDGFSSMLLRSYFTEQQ
Chain of Recombinant Rhinovirus 3C protease serotype 2 (P04936 1508-1690): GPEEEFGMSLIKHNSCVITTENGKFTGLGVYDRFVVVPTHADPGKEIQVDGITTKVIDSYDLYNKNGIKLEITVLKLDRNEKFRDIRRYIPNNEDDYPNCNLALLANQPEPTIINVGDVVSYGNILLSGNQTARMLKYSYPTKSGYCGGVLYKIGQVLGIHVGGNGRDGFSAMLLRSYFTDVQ

Molecule | EC50 (HRV serotype-14) | CC50 (HI-HeLa cells [4]; line of HRV serotype-14) | EC50 (HRV serotype 10) | CC50 (HI-HeLa cells [4]; line of HRV serotype 10) | CC50 (HI-HeLa cells [4]; line of HRV serotype 1A) | further results
CCOC(=O)/C=C/C(CCC(N)=O)NC(=O)C(CC(=O)C(CC(C)C)NC(=O)OCc1ccccc1)Cc1ccccc1 [Compound 1, Ethyl-3-(CBZ-L-LeuΨ[COCH2]-L-Phe-L-Gln)-E-Propenoate] | 0.36 µM | > 320 µM | – | – | – | kobs/I [1]: 3,880 M^−1sec^−1; kobs/I [2]: 2,242 M^−1sec^−1; kobs/I [3]: 17,380 M^−1sec^−1
CCOC(=O)/C=C/[C@H](CCC(N)=O)NC(=O)[C@@H](CC(=O)[C@H](CC(C)C)NC(=O)SCC)Cc1ccccc1 [Compound 2, Ethyl-3-(EtSCO-L-LeuΨ[COCH2]-L-Phe-L-Gln)-E-Propenoate] | 0.24 µM | > 320 µM | – | – | – | EC50 (HRV serotype 2): 1.8 µM; CC50 (HI-HeLa cells [4]; line of HRV serotype 2): > 320 µM
CC(C)CC(NC(=O)SCc1ccccc1)C(=O)CC(Cc1ccccc1)C(=O)NC(C=CC(=O)N1CCc2ccccc21)CCC(N)=O [Compound 3, (2,3-Dihydroindole)-3-(BnSCO-L-LeuΨ[COCH2]-L-Phe-L-Gln)-E-Propenamide] | – | – | – | – | – | Ki [3]: > 7 µM
CCOC(=O)/C=C/[C@H](CCC(N)=O)NC(=O)[C@@H](CC(=O)[C@@H](NC(=O)SCC)C(C)C)Cc1ccccc1 [Compound 4, Ethyl-3-(EtSCO-L-ValΨ[COCH2]-L-Phe-L-Gln)-E-Propenoate] | 0.1 µM | > 320 µM | – | – | – | EC50 (HRV serotype 2): 0.5 µM; CC50 (HI-HeLa cells [4]; line of HRV serotype 2): > 320 µM
CCOC(=O)/C=C/C(CCC(N)=O)NC(=O)C(CC(=O)C(NC(=O)SCc1ccccc1)C(C)C)Cc1ccccc1 [Compound 5, Ethyl-3-(BnSCO-L-ValΨ[COCH2]-L-Phe-L-Gln)-E-Propenoate] | 0.19 µM | > 320 µM | – | – | – | –
CCOC(=O)/C=C/C(CCC(N)=O)NC(=O)C(CC(=O)C(CC(C)C)NC(=O)SCc1ccccc1)Cc1ccccc1 [Compound 6, Ethyl-3-(BnSCO-L-LeuΨ[COCH2]-L-Phe-L-Gln)-E-Propenoate] | 0.68 µM | > 100 µM | – | – | – | –
CCOC(=O)/C=C/C(CCC(N)=O)NC(=O)C(CC(=O)C(NC(=O)SC1CCCC1)C(C)C)Cc1ccccc1 [Compound 7, Ethyl-3-(CyPentylSCO-L-ValΨ[COCH2]-L-Phe-L-Gln)-E-Propenoate] | 0.022 µM | > 10 µM | 0.035 µM | > 10 µM | – | CC50 (HI-HeLa cells [5]): > 10 µM; EC50 (HRV serotype 89): 0.004 µM; EC50 (HRV serotype 2): 0.1 µM; EC50 (HRV serotype 39): 0.13 µM; CC50 (HI-HeLa cells [4]; line of HRV serotype 2): > 10 µM; CC50 (HI-HeLa cells [4]; line of HRV serotype 39): > 10 µM; CC50 (HI-HeLa cells [4]; line of HRV serotype 89): > 10 µM
CCOC(=O)/C=C/[C@H](CCC(N)=O)NC(=O)[C@@H](CC(=O)[C@H](CC(C)C)NC(=O)SC1CCCC1)Cc1ccccc1 [Compound 8, Ethyl-3-(CyPentylSCO-L-LeuΨ[COCH2]-L-Phe-L-Gln)-E-Propenoate] | 0.19 µM | > 100 µM | – | – | – | –
CCOC(=O)/C=C/[C@H](CCC(N)=O)NC(=O)[C@@H](CC(=O)[C@@H](NC(=O)SCC)C(C)C)Cc1ccc(C)cc1 [Compound 10, Ethyl-3-(EtSCO-L-ValΨ[COCH2]-L-(p-CH3)Phe-L-Gln)-E-Propenoate] | 0.011 µM | > 1 µM | – | – | – | EC50 (HRV serotype 2): 0.18 µM; CC50 (HI-HeLa cells [4]; line of HRV serotype 2): > 1 µM
CCOC(=O)C=CC(CCC(N)=O)NC(=O)C(CC(=O)C(NC(=O)SC(C)(C)C)C(C)C)Cc1ccc(F)cc1 (stereo not drawn) [Compound 26] | 0.05 µM | > 10 µM | 0.55 µM | > 10 µM | > 10 µM | –
CCOC(=O)C=CC(CCC(N)=O)NC(=O)C(CC(=O)C(NC(=O)C1SCCS1)C(C)C)Cc1ccc(F)cc1 (stereo not drawn) [Compound 27] | – | > 1 µM | 3.3 µM | > 1 µM | > 1 µM | –
CC(C)C(NC(=O)SC1CCCC1)C(=O)CC(Cc1ccc(F)cc1)C(=O)NC(C=CC(=O)OCc1cccnc1)CCC(N)=O (stereo not drawn) [Compound 28] | – | > 10 µM | 1 µM | > 10 µM | > 10 µM | EC50 (HRV serotype 1A): 0.6 µM
CC(C)C(NC(=O)C1SCCS1)C(=O)CC(Cc1ccc(F)cc1)C(=O)NC(C=CC(=O)OCc1cccnc1)CCC(N)=O (stereo not drawn) [Compound 30] | 1.5 µM | > 100 µM | – | – | – | kobs/I [3]: 292,000 M^−1sec^−1
CCOC(=O)C=CC(CCC(N)=O)NC(=O)C(CC(=O)C(NC(=O)C1SCCCS1)C(C)C)Cc1ccc(F)cc1 (stereo not drawn) [Compound 31] | – | > 3 µM | 4.7 µM | > 3 µM | > 3 µM | EC50 (HRV serotype 1A): 6.3 µM
CC(C)C(NC(=O)SC(C)(C)C)C(=O)CC(Cc1ccc(F)cc1)C(=O)NC(C=CC(=O)OCc1cccnc1)CCC(N)=O (stereo not drawn) [Compound 32] | 0.4 µM | > 32 µM | 1.9 µM | > 32 µM | > 32 µM | kobs/I [3]: 58,000 M^−1sec^−1; EC50 (HRV serotype 1A): 2.2 µM
CC(C)C(NC(=O)SC1CCCC1)C(=O)CC(Cc1ccc(F)cc1)C(=O)NC(C=CC(=O)OCCO)CCC(N)=O (stereo not drawn) [Compound 33] | 0.51 µM | > 32 µM | 1.6 µM | > 32 µM | > 32 µM | kobs/I [3]: 281,000 M^−1sec^−1; EC50 (HRV serotype 1A): 1.7 µM
CCOC(=O)C=CC(CCC(N)=O)NC(=O)C(CC(=O)C(NC(=O)c1cc(C)on1)C(C)C)Cc1ccc(F)cc1 (stereo not drawn) [Compound 34] | – | > 3 µM | 0.4 µM | > 3 µM | > 3 µM | EC50 (HRV serotype 1A): 0.3 µM
Cc1cc(CCCCCOc2c(Cl)cc(C3=NCCO3)cc2Cl)on1 [WIN 54954, reference compound] | – | – | – | – | – | CC50 (HI-HeLa cells [5]): > 100 µM
Ethyl-3-(CyPentylSCO-L-CyhexΨ[COCH2]-L-(p-F)Phe-L-Gln)-E-Propenoate [Compound 24] | 0.032 µM | – | – | – | – | –
